The target in test [1] is ROCK2 (Homo sapiens, UniProt O75116). In words: ROCK assay: phosphorylation of FITC peptide substrate, LABCHIP 3000 mobility shift. The class given is biochemical. The conditions noted are these: 5 μM ATP, 1.5 μM peptide substrate; read-out: ROCK2 Activity (ROCK IC50 range). The method in brief: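 Rho kinase variant phosphorylates 1.5 μM FITC-AHA-AKRRRLSSLRA-OH with 5 μM ATP in 20 mM HEPES pH 7.5, 20 mM MgCl2, 0.015% Brij-35, 4 mM DTT, DMSO <2%. EDTA stops the reaction, and phospho and non-phospho peptides are resolved by LabChip 3000 mobility shift. IC50 from dose-response curve fit.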

Test [2] deals with congestive heart failure in Dahl salt-sensitive rats. Conditions: cited from earlier work.
Test [3] concerns spontaneously hypertensive rat, renal hypertensive rat and deoxycortisone acetate salt hypertensive rat models. Conditions: cited from earlier work.
For test [4], the system named is neointimal formation. The conditions noted are these: rats, balloon injury model; cited from earlier work.
Test [5] concerns IL-1 beta-induced coronary stenosis. Conditions: porcine model, long term treatment; cited from earlier work.
Test [6] deals with rat stroke model. The conditions noted are these: cited from earlier work.

Counter-ions that a name gives are not always drawn. Like-named read-outs stand apart in the source and are kept apart here.

ROCK2, sequence (O75116 whole entry, species assumed): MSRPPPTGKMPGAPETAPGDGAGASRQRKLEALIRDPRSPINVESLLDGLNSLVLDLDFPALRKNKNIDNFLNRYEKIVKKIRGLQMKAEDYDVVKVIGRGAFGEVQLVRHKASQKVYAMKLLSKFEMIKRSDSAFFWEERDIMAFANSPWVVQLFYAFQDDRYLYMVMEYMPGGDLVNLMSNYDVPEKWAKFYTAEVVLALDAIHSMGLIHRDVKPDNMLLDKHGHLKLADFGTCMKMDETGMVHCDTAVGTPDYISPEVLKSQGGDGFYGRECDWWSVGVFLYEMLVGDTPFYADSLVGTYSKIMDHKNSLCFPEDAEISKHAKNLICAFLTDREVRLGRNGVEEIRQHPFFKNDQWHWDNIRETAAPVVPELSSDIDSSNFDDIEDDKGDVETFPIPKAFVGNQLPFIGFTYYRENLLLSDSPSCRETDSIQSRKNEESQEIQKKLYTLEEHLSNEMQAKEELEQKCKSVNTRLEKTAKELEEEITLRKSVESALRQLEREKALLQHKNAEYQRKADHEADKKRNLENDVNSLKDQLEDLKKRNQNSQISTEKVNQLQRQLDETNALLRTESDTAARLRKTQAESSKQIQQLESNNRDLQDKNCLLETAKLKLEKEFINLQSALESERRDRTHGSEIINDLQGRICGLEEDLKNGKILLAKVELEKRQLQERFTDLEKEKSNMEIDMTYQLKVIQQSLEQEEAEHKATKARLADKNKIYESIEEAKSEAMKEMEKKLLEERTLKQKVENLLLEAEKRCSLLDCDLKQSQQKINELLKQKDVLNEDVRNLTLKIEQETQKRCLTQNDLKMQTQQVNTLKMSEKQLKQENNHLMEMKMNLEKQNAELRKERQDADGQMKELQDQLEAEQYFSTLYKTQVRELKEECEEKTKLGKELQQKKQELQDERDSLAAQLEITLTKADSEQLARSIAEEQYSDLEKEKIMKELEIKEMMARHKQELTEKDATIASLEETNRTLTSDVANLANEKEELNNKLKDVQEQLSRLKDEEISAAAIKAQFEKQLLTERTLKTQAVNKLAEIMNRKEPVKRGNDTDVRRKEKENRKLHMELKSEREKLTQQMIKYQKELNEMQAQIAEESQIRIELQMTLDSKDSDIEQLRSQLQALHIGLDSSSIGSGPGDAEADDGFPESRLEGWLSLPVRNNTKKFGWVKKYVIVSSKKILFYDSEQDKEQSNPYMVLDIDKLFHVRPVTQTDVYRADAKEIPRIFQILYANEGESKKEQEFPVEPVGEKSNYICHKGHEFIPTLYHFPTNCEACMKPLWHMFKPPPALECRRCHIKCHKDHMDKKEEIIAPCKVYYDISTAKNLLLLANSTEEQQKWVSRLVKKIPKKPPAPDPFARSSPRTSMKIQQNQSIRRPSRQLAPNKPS

On to `[H][C@]1(c2n[nH]c(=O)c3ccccc32)C[C@]2(C[C@@H](NC(=O)c3ccc(-c4cnn(C)c4)cc3)C2)C1` (stereo partly drawn) [Example 451, 4-(1-methyl-1H-pyrazol-4-yl)-N-((aR)-6-(4-oxo-3,4-dihydrophthalazin-1-yl)spiro[3.3]heptan-2-yl)benzamide], for which, in test [1], the IC50 (usually the midpoint of a concentration-inhibition curve) was in the range of 5.1 to 15 nM. On to `[H][C@]1(c2n[nH]c(=O)c3ccccc32)C[C@]2(C[C@@H](NC(=O)c3cnc4cc(-c5cccnc5)ccn34)C2)C1` (stereo partly drawn) [Example 452, N-((aR)-6-(4-oxo-3,4-dihydrophthalazin-1-yl)spiro[3.3]heptan-2-yl)-7-(pyridin-3-yl)imidazo[1,2-a]pyridine-3-carboxamide], for which the IC50 in test [1] fell in the range of 0.2 to 2 nM. For the compound `[H][C@]1(c2n[nH]c(=O)c3ccccc32)C[C@]2(C[C@@H](NC(=O)c3cn4ccc(-c5cccnc5)cc4n3)C2)C1` (some centres unmarked) [Example 453], the IC50 in test [1] was in the range of 15.1 to 100 nM. Regarding `[H][C@]1(c2n[nH]c(=O)c3ccccc32)C[C@]2(C[C@@H](NC(=O)c3cn4ccc(-c5cnc(C)s5)cc4n3)C2)C1` (stereo partly drawn) [Example 454, 7-(2-methylthiazol-5-yl)-N-((aR)-6-(4-oxo-3,4-dihydrophthalazin-1-yl)spiro[3.3]heptan-2-yl)imidazo[1,2-a]pyridine-2-carboxamide], the IC50 in test [1] fell in the range of 15.1 to 100 nM. Turning to `Cc1ncc(-c2ccn3c(C(=O)NC4CC5(C4)CC(c4n[nH]c(=O)c6ccccc46)C5)cnc3c2)s1` [Example 455, 7-(2-methylthiazol-5-yl)-N-((aR)-6-(4-oxo-3,4-dihydrophthalazin-1-yl)spiro[3.3]heptan-2-yl)imidazo[1,2-a]pyridine-3-carboxamide], in test [1], the IC50 was in the range of 2.01 to 5 nM.

For the compound `O=C1c2ccccc2CN1C1CC2(CC(c3n[nH]c(=O)c4ccccc34)C2)C1` [Example 457, 4-((aR)-6-(1-oxoisoindolin-2-yl)spiro[3.3]heptan-2-yl)phthalazin-1(2H)-one], the IC50 in test [1] lay in the range of 15.1 to 100 nM.

Consider `O=C1N[C@@H](Cc2ccccc2)CN1[C@H]1CC2(C[C@H](c3n[nH]c(=O)c4ccccc43)C2)C1` (stereo partly drawn) [Example 458, 4-((aR)-6-((S)-4-benzyl-2-oxoimidazolidin-1-yl)spiro[3.3]heptan-2-yl)phthalazin-1(2H)-one], for which the IC50 in test [1] fell in the range of 100 to 2100 nM. As to `[H][C@]1(c2n[nH]c(=O)c3ccccc32)C[C@@]2(C[C@H](N3C[C@@H](Cc4ccccc4)NC3=O)C2)C1` (stereo partly drawn) [Example 459, 4-((aR)-6-((R)-4-benzyl-2-oxoimidazolidin-1-yl)spiro[3.3]heptan-2-yl)phthalazin-1(2H)-one], in test [1], the IC50 lay in the range of 100 to 2100 nM.

Take `O=c1[nH]nc([C@H]2CC3(C[C@H](Nc4ccccc4[N+](=O)[O-])C3)C2)c2ccccc12` (stereo partly drawn) [Example 460, 4-((aR)-6-((2-nitrophenyl)amino)spiro[3.3]heptan-2-yl)phthalazin-1(2H)-one]: in test [1], the IC50 was 15.1 to 100 nM.

`[H][C@]1(c2n[nH]c(=O)c3ccccc32)C[C@]2(C[C@@H](n3c(=O)[nH]c4ccccc43)C2)C1` (stereo partly drawn) [Example 461, 4-((aR)-6-(2-oxo-2,3-dihydro-1H-benzo[d]imidazol-1-yl)spiro[3.3]heptan-2-yl)phthalazin-1(2H)one]: the IC50 in test [1] lay in the range of 100 to 2100 nM. In the case of `O=C(N[C@H]1CC2(C1)C[C@H](c1n[nH]c(=O)c3ccccc31)C2)c1cnn2cccc(C3CC3)c12` (stereo partly drawn) [Example 462, 4-cyclopropyl-N-((aR)-6-(4-oxo-3,4-dihydrophthalazin-1-yl)spiro[3.3]heptan-2-yl)pyrazolo[1,5-a]pyridine-3-carboxamide], in test [1], the IC50 lay within 15.1 to 100 nM. With `Cn1cc(-c2cnc(C(=O)N[C@H]3CC4(C3)C[C@H](c3n[nH]c(=O)c5ccccc53)C4)c(F)c2)cn1` (stereo partly drawn) [Example 463, 3-fluoro-5-(1-methyl-1H-pyrazol-4-yl)-N-((aR)-6-(4-oxo-3,4-dihydrophthalazin-1-yl)spiro[3.3]heptan-2-yl)picolinamide], the IC50 in test [1] is 15.1 to 100 nM. Turning to `O=C(OC1CC2(C1)CC(c1n[nH]c(=O)c3ccccc13)C2)N1Cc2ccccc2C1` (centres unmarked) [Example 464, 6-(4-oxo-3,4-dihydrophthalazin-1-yl)spiro[3.3]heptan-2-yl isoindoline-2-carboxylate], in test [1], the IC50 lay within 100 to 2100 nM. Same read-out and setting: then `CS(=O)(=O)c1ccn2c(C(=O)N[C@H]3CC4(C3)C[C@H](c3n[nH]c(=O)c5ccccc53)C4)cnc2c1` (stereo partly drawn) [Example 465, 7-(methylsulfonyl)-N-((aR)-6-(4-oxo-3,4-dihydrophthalazin-1-yl)spiro[3.3]heptan-2-yl)imidazo[1,2-a]pyridine-3-carboxamide], with 5.1 to 15 nM; and `O=C(NC1CC2(C1)CC(c1n[nH]c(=O)c3ccccc13)C2)c1cnn2ccncc12` [Example 467, N-((aR)-6-(4-oxo-3,4-dihydrophthalazin-1-yl)spiro[3.3]heptan-2-yl)pyrazolo[1,5-a] pyrazine-3-carboxamide], with 15.1 to 100 nM.

On to `O=C(NC1CC2(C1)CC(c1n[nH]c(=O)c3ccccc13)C2)C1Cc2cc(Br)ccc2N1` [Example 468, 5-bromo-N-((aR)-6-(4-oxo-3,4-dihydrophthalazin-1-yl)spiro[3.3]heptan-2-yl)indoline-2-carboxamide,TFA], for which the IC50 in test [1] was in the range of 100 to 2100 nM.

`CC(C)(Oc1ccc2c(C(=O)N[C@H]3CC4(C3)C[C@H](c3n[nH]c(=O)c5ccccc53)C4)cnn2c1)C(=O)O` (stereo partly drawn) [Example 469, 2-methyl-2-((3-(((aR)-6-(4-oxo-3,4-dihydrophthalazin-1-yl)spiro[3.3]heptan-2-yl)carbamoyl)pyrazolo[1,5-a]pyridin-6-yl)oxy)propanoic acid]: the IC50 in test [1] lay in the range of 15.1 to 100 nM.

In the case of `O=C(N[C@H]1CC2(C1)C[C@H](c1n[nH]c(=O)c3ccccc31)C2)c1cnc2cc(N3CCOCC3)ccn12` (stereo partly drawn) [Example 470, 7-morpholino-N-((aR)-6-(4-oxo-3,4-dihydrophthalazin-1-yl)spiro[3.3]heptan-2-yl)imidazo[1,2-a]pyridine-3-carboxamide, TFA], the IC50 in test [1] lay within 0.2 to 2 nM. `[H][C@]1(c2n[nH]c(=O)c3ccccc32)C[C@]2(C[C@@H](NC(=O)c3cnc4cc(OC5CCC(F)(F)CC5)ccn34)C2)C1` (stereo partly drawn) [Example 471, 7-((4,4-difluoro-cyclohexyl)oxy)-N-((aR)-6-(4-oxo-3,4-dihydro-phthalazin-1-yl)spiro[3.3]heptan-2-yl)imidazo[1,2-a]pyridine-3-carboxamide, TFA]: the IC50 in test [1] was in the range of 2.01 to 5 nM. On to `C[C@@H](N)[C@H]1CC[C@H](C(=O)Nc2ccncc2)CC1` [Example Y-27632], for which the “ventricular hypertrophy, fibrosis and function” value in test [2] was “improve ventricular hypertrophy, fibrosis and function”. The blood pressure entry in test [3] (control rats) is “only a minor effect on blood pressure”; in test [3] (three rat models of hypertension), “significantly decrease blood pressure”. Besides, the neointimal formation result in test [4] is recorded as “inhibited neointimal formation”. For the compound `O=S(=O)(c1cccc2cnccc12)N1CCCNCC1` [fasudil], in test [5], the coronary constrictive remodeling result is “promote a regression of coronary constrictive remodeling” and the coronary stenosis entry is on record as “progressively reduce coronary stenosis”. The “infarct size and neurologic deficit” value in test [6] is “reduce both the infarct size and neurologic deficit”.

Values taken from patent US9902702B2, “Spirocycloheptanes as inhibitors of rock” (BRISTOL-MYERS SQUIBB COMPANY, priority 2014, dated 2018).
